The subject of this experiment is murine neural precursor cells (neurosphere cultures). As to the kind of experiment: HTS of LOPAC library against secondary neurosphere cultures, MTT proliferation assay at 3 μM, day 7 (z score, P value). In kind it is cell-based, mouse. A general note: Tetrazolium assays rely on reduction of a dye to a coloured formazan, in cell work by metabolically active cells.
The mark [1] stands for this setting: primary LOPAC screen, 3 μM, MTT, neurosphere proliferation.
[2] abbreviates: yes/no: significantly inhibited neurosphere proliferation in the primary screen.
The mark [3] stands for this setting: LOPAC primary screen, neurosphere MTT proliferation, 3 μM, day 7.
[4] abbreviates: yes = significantly inhibited neurosphere proliferation (P<0.01) in the primary screen.
Setting [5] is: yes/no: significantly inhibited neurosphere proliferation (P<0.01) in primary screen.
The mark [6] stands for this setting: yes/no: significantly inhibited neurosphere proliferation (P<0.01) in the primary screen.
The mark [7] stands for this setting: LOPAC library screen, 3 μM, MTT, neurosphere cultures.
The mark [8] stands for this setting: LOPAC screen, neurosphere MTT proliferation, 3 μM, day 7.

Counter-ions that a name gives are not always drawn. Like-named read-outs stand apart in the source and are kept apart here.

As for `Nc1ncnc2c1ncn2C1CCCO1` (stereo not drawn) [SQ 22536], the “Z Score” value was 0.5616. This compound registered a Z score under setting [1] of 0.562. In addition, the Activity result under setting [2] was “no”.

Regarding `CC(N)Cc1c[nH]c2ccc(O)cc12.O=C(O)/C=C\C(=O)O` (stereo not drawn) [alpha-Methyl-5-hydroxytryptamine maleate], the “Z Score” value is −0.7796. This compound also came in with a Z score under setting [3] of −0.780. Besides, under setting [4], the Activity result is “no”.

As for `CC(C)NC[C@@H](O)COc1ccc(CC(N)=O)cc1` [R(+)-Atenolol], the “Z Score” value (LOPAC library screen at 3 μM, MTT, secondary neurosphere cultures, screened in singlets) stood at 3.764. Also, the Z score under setting [1] came to 3.764. Under setting [2], the Activity result was “no”.

On to `Br.C[N+](C)(C)CCCCCNCC12CC3CC(CC(C3)C1)C2.[Br-]` [IEM-1460], for which the “Z Score” value came out at 0.6848. Under setting [3], this compound registered a Z score of 0.685. Further, the Activity entry under setting [5] was “no”.

For the compound `CN1CCc2cc(O)cc3c2[C@H]1Cc1ccc(O)c(O)c1-3` [R(−)-2,10,11-Trihydroxyaporphine], under setting [3], the Z score was −3.309. Also, the Activity result under setting [6] is given as “yes”.

Turning to `Cc1ccccc1N1CCN(S(=O)(=O)CC23CCC(CC2NC(=O)C(N)CCS(C)(=O)=O)C3(C)C)CC1` [L-368,899], the “Z Score” value is listed as 0.2909. The Z score under setting [3] amounted to 0.291. Moreover, under setting [5], the Activity entry is on record as “no”.

In the case of `Cn1c(=O)c2c(ncn2C)n(C)c1=O` [Caffeine], the “Z Score” value under setting [7] is listed as 0.4113. Moreover, the Z score under setting [8] was determined as 0.411.

On to `COc1ccc([C@@H]2Sc3ccccc3N(CCN(C)C)C(=O)[C@@H]2OC(C)=O)cc1` [Diltiazem hydrochloride], for which the Activity entry was “no”. In addition, the “Z Score” value under setting [7] was 0.5395. This compound also registered a Z score under setting [8] of 0.540.

Regarding `C[N+](C)(C)CCO.[Br-]` [Choline bromide], the Activity result was “no”, the “Z Score” value is given as −0.73 and the Z score is listed as −0.730.

Take `CCc1c(C(=O)OC)ncc2[nH]c3cc(OC)c(OC)cc3c12` [Methyl 6,7-dimethoxy-4-ethyl-beta-carboline-3-carboxylate]: the “Z Score” value is recorded as −1.326. The compound also had a Z score under setting [3] of −1.326. In addition, the Activity result under setting [5] is on record as “no”.

On to `CN(C)CCCN1c2ccccc2Sc2ccc(Cl)cc21` [Chlorpromazine hydrochloride], for which the “Z Score” value under setting [7] turned out to be 0.7506. Under setting [3], this compound registered a Z score of 0.751. Further, the Activity entry under setting [6] is recorded as “no”.

As to `Cc1cc(C(C)(C)C)cc(C)c1CC1=NCCN1` [Xylometazoline hydrochloride], the “Z Score” value was 0.296. The same compound came in with a Z score under setting [1] of 0.296. Besides, the Activity result under setting [2] is “no”.

`CN1CCN(C2=Nc3cc(Cl)ccc3Nc3ccccc32)CC1` [Clozapine]: under “168 h, 3 µM”, the “Z Score” value was 0.5473 and the Z score was 0.547.

In the case of `CC(=O)CCCCn1c(=O)c2c(ncn2C)n(C)c1=O` [Pentoxifylline], the “Z Score” value (LOPAC library screen, 3 μM, MTT, secondary neurosphere cultures, day 7) was −1.637. Further, the Z score under setting [3] is on record as −1.637. For the same compound, the Activity result (yes/no: significantly inhibited neurosphere proliferation in primary screen) is recorded as “no”.

Regarding `CCCCC[C@H](CC(=O)NO)C(=O)N[C@H](C(=O)N1CCC[C@H]1CO)C(C)C` [Actinonin], for the setting “168 h, 3 µM”, the “Z Score” value is −3.501 and the Z score is on record as −3.501. For the same compound, the Activity entry under setting [4] is “yes”.

`Nc1ncnc2c1nc(Sc1ccc(Cl)cc1)n2C1OC2COP(=O)(O)OC2C1O` (stereo in doubt) [8-(4-Chlorophenylthio)-cAMP sodium]: under setting [7], the “Z Score” value is recorded as 1.217. Under setting [8], this compound came in with a Z score of 1.217. The Activity entry under setting [5] is given as “no”.

As to `CNC(=O)[C@H]1O[C@@H](n2cnc3c(NCc4cccc(I)c4)nc(Cl)nc32)[C@H](O)[C@@H]1O` [Chloro-IB-MECA], where the note is “LOPAC library screen at 3 μM, secondary neurosphere cultures, MTT”, the “Z Score” value is listed as −0.8471. This compound came in with a Z score under setting [8] of −0.847. Moreover, the Activity entry under setting [5] is given as “no”.

`Br.C=CCN1CCc2c(cc(O)c(O)c2Br)[C@@H](c2ccccc2)C1` [R(+)-6-Bromo-APB hydrobromide]: the “Z Score” value stood at 1.532. Moreover, the Z score under setting [8] is given as 1.532. Also, the Activity result under setting [5] was “no”.

These data come from US8058243B2, “Method for treating a brain cancer with ifenprodil” (HSC Research and Development Limited Partnership, priority 2006, dated 2011).
